Measurements taken from US20060148829A1, “Means for inducing differentiation of supernumerary hair cells and deiters' cells in the developing organ of corti” (priority 2002, published 2006).
Starred links: 1 amine or outer side, 2 acyl side, 3 side chain; linkers in the order of their positions; H or OH if unused. Positions of bridges follow the written chain, without caps; N, C: chain ends. Non-standard residues stand in square brackets, D forms with d. Residues, ends and D or L forms follow the SMILES beside them. Chains are numbered I, II in the order given. Actinocin(9to1) = Cc1c2oc3c(C)ccc(C(=O)[*:1])c3nc-2c(C(=O)[*:2])c(N)c1=O; NMeV = CN[C@H](C(=O)O)C(C)C; Sar = CNCC(=O)O

Columns and labels:
[1] = test system: rat organ of Corti explants; assay: Induction of supernumerary hair cells (HCs) in cultured organ of Corti explants; details: for Induction of supernumerary HCs (in words): E19 rat organ of Corti explants, 5 days in culture; for Concentration inducing maximum supernumerary HCs differentiation: isolated organs of Corti, lowest concentration inducing maximum effect, for inactive compounds highest concentration tested 100 :M
From the text: Time-pregnant Sprague-Dawley rats or neonates were killed by euthanasia on gestational days 17 (E17), E19, or on postnatal days 0 (day of birth=P0), P2 and P4 with CO2. Both cochleae were dissected free from the calvaria with watchmaker forceps and under a stereomicroscope. Each organ of Corti was freed from surrounding tissues and explanted intact onto the surface of a sterile membrane (Mllicellm, 12 mm, Millipore, Bedford, Mass., USA) in minimum essential medium (MEM; Gibco, Gent, Belgium) into a 24-well culture plate (Nunc). Cultures were incubated at 37° C. in a humidified atmosphere of 95% air and 5% CO2. Medium was renewed every 2 days.
Organs of Corti were dissected from E19 rats and maintained in culture. […] For each condition, the explants were fixed and the supernumerary zones were counted after myosin VIIa immunostaining.
Quantitative analysis of supernumerary HCs production was obtained by counting the number of HCs per length and surface of sensory epithelium regions from the medium turn as previously described (5). If supernumerary cells were actually produced, the number of cells per unit of length should increase while the number of cells per surface unit should remain at the same level. […] The total length of each organ of Corti explant was measured and the extent of the region with supernumerary HCs was expressed as percent of total length. These supernumerary regions were defined by the presence of more than four rows of HCs.

CDK1/cyclin B = details: Knockaert et al, 2002b; cited from earlier work
[2] = test system: E19 rat organ of Corti explants; assay: TUNEL labelling of apoptosis in organ of Corti explants; assay type: cell-based; details: 10 :M, after 1, 2 or 5 DIV
From the text: The apoptosis in E19 rat organ of Corti explants was looked for by staining the specimens cultured for 1, 2 or 5DIV with the terminal deoxynudeotidyl transferase-mediated dUTP nick-end labelling (TUNEL) method using the ApopTag fluorescent detection kit (Oncor, Gaitherburg, Md.) as previously described (6).

[3] = test system: E19 explants of organ of Corti; assay: BrdU labelling of cell proliferation in organ of Corti explants; assay type: cell-based, rat
Description: Immunohistochemistry, immunocytochemistry and confocal microscopy were carried out as previously described (4;5). Whole-mount preparations or cryostat sections (10-20 :m) were fixed with either 4% paraformaldehyde (10 min. at 20° C.) or methanol (5 min. at −20° C.). Primary antibodies incubations were performed overnight at 4° C. Preparations were washed three times in PBS before incubating with a secondary antibody conjugated to alexa488, alexa568 or TRITC fluorophore for 1 hour at 20° C. Sequential double labeling experiments were done with a 4% paraformaldehyde fixation step in between each immunoreaction. Preparations were mounted on microscope slides and coverslipped with Fluoprep mounting medium (BioMérieux, Marcy l'Etoile, France) and imaged using a Bio-Rad MRC1024 laser scanning confocal microscope. To label cells in S phase in vitro, BrdU (10 :M, Sigma, USA) which is incorporated into replicating DNA, was added to the cultures for 2 or 5DIV prior staining.

[4] = test system: mouse organs of Corti (Math1 genotypes); assay: Roscovitine-induced HCs in organs of Corti of wild type, Math1-null and heterozygote mice; assay type: cell-based; details: 5DIV
Description: Math1 knockout mice were generated by replacing the Math1 open reading frame (ORF) with the selectable marker PGKhprt as previously described by Ben-Arie et al.(l). Math1^∃^gal/^∃^-gal knock-in mice were generated by replacing the Math1 ORF with a ∃-galactosidase (∃-gal) reporter gene so that ∃-gal is expressed in all cells that express Math1 (2).
Whole-mount lacZ staining was carried out on cultured E15.5 organ of Corti explants as previously described (2;3). After 5DIV, explants were fixed in 4% paraformaldehyde for 20 minutes, washed thoroughly in PBS and equilibrate in X-gal staining buffer (5 mM potassium ferricyanide, 5 mM potassium ferrocyanide, 0.02% NP40, and 0.01% sodium deoxycholate). Explants were stained overnight in X-gal buffer with X-gal (1 mg/ml) then post-fixed in 4% paraformaldehyde. Genotyping of tail DNA was performed using Southern analysis of EcoRI digested DNA and probes as previously described (1).

[5] = Administration to patients suffering of deafness; assay type: in vivo; details: regularly administered

CC(C)[C@H](CO)Nc1nc(N(C)c2cc(N)cc(Cl)c2)c2ncn(C(C)C)c2n1 [6-methyl-aminopurvalanol, N6-methyl-aminopurvalanol]
Induction of supernumerary HCs (in words) [1]: no effect | Concentration inducing maximum supernumerary HCs differentiation [1]: no effect

Cc1c2oc3c(C)ccc(C(=O)N[C@@H]4C(=O)N[C@H](C(C)C)C(=O)N5CCC[C@H]5C(=O)N(C)CC(=O)N(C)[C@@H](C(C)C)C(=O)O[C@@H]4C)c3nc-2c(C(=O)N[C@@H]2C(=O)N[C@H](C(C)C)C(=O)N3CCC[C@H]3C(=O)N(C)CC(=O)N(C)[C@@H](C(C)C)C(=O)O[C@@H]2C)c(N)c1=O [Actinomycin D, actinomycin D] (I: T[dV]P[Sar][NMeV] / II: T[dV]P[Sar][NMeV]; ester I:1-I:C, II:1-II:C; linker I:N-II:N via Actinocin(9to1))
Induction of supernumerary HCs (in words) [1]: able to induce supernumerary HCs | Concentration inducing maximum supernumerary HCs differentiation [1]: 0.0001 :M

OC[C@H]1O[C@@H](n2cnc3cc(Cl)c(Cl)cc32)[C@H](O)[C@@H]1O [DRB, 6-dichloro-1-beta-D-ribobenzimidazole]
Induction of supernumerary HCs (in words) [1]: able to induce supernumerary HCs | Concentration inducing maximum supernumerary HCs differentiation [1]: 0.01 :M

N#CC(=C(/N)Sc1ccccc1N)/C(C#N)=C(\N)Sc1ccccc1N [U0126]
CDK1 inhibition (IC50) (CDK1/cyclin B): no effect | Induction of supernumerary HCs (in words) [1]: did not induce supernumerary HCs | Concentration inducing maximum supernumerary HCs differentiation [1]: no effect

O=C1Cc2c([nH]c3ccc([N+](=O)[O-])cc23)-c2ccccc2N1 [alsterpaullone]
Induction of supernumerary HCs (in words) [1]: induced the appearance of supernumerary HCs | Concentration inducing maximum supernumerary HCs differentiation [1]: 5 :M

CC(C)[C@H](CO)Nc1nc(Nc2cc(N)cc(Cl)c2)c2ncn(C(C)C)c2n1 [aminopurvalanol]
Concentration inducing maximum supernumerary HCs differentiation [1]: 5 :M

O=C1c2ccccc2-[n+]2ccc3c([nH]c4ccccc43)c21 [fascaplysin]
CDK1 inhibition (IC50) (CDK1/cyclin B): no effect | Induction of supernumerary HCs (in words) [1]: no effect | Concentration inducing maximum supernumerary HCs differentiation [1]: no effect

Cn1cnc2nc(NCCO)nc(NCc3ccccc3)c21 [iso-olomoucine]
Induction of supernumerary HCs (in words) [1]: no effect | Concentration inducing maximum supernumerary HCs differentiation [1]: no effect

Cn1cnc2c(NCc3ccccc3)nc(NCCO)nc21 [olomoucine]
Concentration inducing maximum supernumerary HCs differentiation [1]: 30 :M

CC[C@H](CO)Nc1nc(NCc2ccccc2)c2ncn(C(C)C)c2n1 [roscovitine]
TUNEL positive nuclei [2]: no TUNEL positive nuclei were identified | Rate of proliferation of mesenchymal cells in connective tissue ([3]; E19 explants, BrdU): higher in the absence of roscovitine | BrdU labelling of epithelial cells in the area of HCs and SCs ([3]; roscovitine-treated E19 explants, 10 :M BrdU, 2 or 5 DIV): No epithelial cells were labeled with BrdU | Developmental stage dependence of induction of supernumerary HCs ([1]; 10 :M, 5 days of culture, stages E17 to P4): culminated at E17, sightly decreased at E19 and disappeared at P0 | Toxicity for cells in the organ of Corti ([1]; 30 and 100 :M): toxic for all cells in the organ of Corti | Time in culture for maximal effect on length of supernumerary zones ([1]; E19 rat explants, 10 :M): 5 DIV | Supernumerary segments as percent of the total length of the explants ([1]; E19 rat explants, 10 :M, 5DIV, mean, S.D., n=4 independent experiments): 52.9% | Time in culture for effect on length of supernumerary zones ([1]; E19 rat explants, 10 :M, significant effect): 4 DIV | Induction of supernumerary HCs (in words) [1]: higher number of supernumerary HCs and corresponding SCs | Concentration inducing maximum supernumerary HCs differentiation [1]: 10 :M | Density of HCs per surface unit vs control explants ([1]; roscovitine-treated explants): remained identical to that of control explants | Myosin VIIA positive supernumerary HCs, wild type mice ([4]; E15 or E18 wild type mice): myosin VIIA immunopositive supernumerary HCs, (FIG. 9A) were observed | Supernumerary HCs, Math1 heterozygote mice ([4]; E15.5 Math1 +/beta-gal organs of Corti, 10 :M): supernumerary HCs were present | Myosin VIIA staining, Math1-null mutant mice ([4]; E15.5 Math1-null cochlea): absent | Clinical effect in patients suffering of deafness [5]: An improvement of their troubles was observed | Tolerability in patients suffering of deafness [5]: without any drawbacks

indirubin-3′-monoxime
Induction of supernumerary HCs (in words) [1]: induced the appearance of supernumerary HCs | Concentration inducing maximum supernumerary HCs differentiation [1]: 10 :M
